# What was measured:
# [1] = system: anemic DD-CKD patients with incident dialysis and limited ESA exposure; test: Phase 3 Incident DD-CKD (Correction/Conversion) trial, vadadustat vs darbepoetin alfa; assay type: in vivo, human; settings: for Ferritin, mean / Hepcidin, mean / TSAT, mean: Incident trial
# Method: Two randomized Phase 3, open-label, sponsor-blind, active-controlled non-inferiority (NI) trials were conducted in anemic DD-CKD patients with incident dialysis and limited ESA exposure (Correction/Conversion trial) and with prevalent dialysis and established ESA treatment (Conversion trial). The primary safety endpoint was prespecified as the time to first major adverse cardiovascular event (MACE) (all-cause mortality, non-fatal MI, or non-fatal stroke) pooled across the two trials. Primary and key secondary efficacy endpoints were mean change in Hb from baseline [BL] to wks 24-36 and to wks 40-52 between two treatment arms, respectively.
# Phase 3, randomized, open-label, active-controlled study of the efficacy and safety of vadadustat versus darbepoetin alfa for the maintenance treatment of anemia after the correction of hemoglobin (Hb) or conversion from current ESA therapy in subjects who have recently initiated dialysis treatment for DD-CKD. Following a Screening period of up to 8 weeks (56 days), subjects who met all inclusion and none of the exclusion criteria were randomized 1:1 to vadadustat or darbepoetin alfa.
# Randomization were stratified by: • Geographic region (United States [US] versus European Union [EU] versus Rest of World [ROW]). • New York Heart Association congestive heart failure (CHF) Class 0 (no CHF) or I versus II or III. • Study entry hemoglobin (Hb) level (<9.5 or ≥9.5 g/dL).
# Following randomization, there were 4 periods during the study: • Correction/Conversion Period (Weeks 0 to 23): initial period on study medication. • Maintenance Period (Weeks 24 to 52): period on study medication during which efficacy was assessed (primary evaluation period: Weeks 24 to 36; secondary evaluation period: Weeks 40 to 52). • Long-term Treatment Period (Weeks 53 to End of Treatment [EOT]): continued study medication to assess long-term safety. • Follow-up (EOT+4 weeks): post-treatment visit (either in person or via telephone) for safety.
# Inclusion Criteria: Subjects met the following criteria: • ≥18 years of age. • Initiated chronic maintenance dialysis (either peritoneal or hemodialysis) for end-stage kidney disease within 16 weeks prior to Screening. • Mean screening hemoglobin (Hb) between 8.0 and 11.0 g/dL (inclusive), as determined by the average of 2 Hb values measured by the central laboratory during Screening. • Serum ferritin ≥100 ng/mL and transferrin saturation (TSAT) ≥20% at Screening. • Folate and vitamin B12 measurements lower limit of normal at Screening. • Understands the procedures and requirements of the study and provides written informed consent and authorization for protected health information disclosure.
# Exclusion Criteria: Subjects were excluded if they met any of the following criteria: • Anemia due to a cause other than CKD or subjects with active bleeding or recent blood loss. • Subjects with sickle cell disease, myelodysplastic syndromes, bone marrow fibrosis, hematologic malignancy, myeloma, hemolytic anemia, thalassemia, or pure red cell aplasia. • Red blood cell (RBC) transfusion within 8 weeks prior to randomization. • Anticipated to recover adequate kidney function to no longer require dialysis. • Aspartate aminotransferase (AST)/serum glutamic oxaloacetic transaminase (SGOT), alanine aminotransferase (ALT)/serum glutamic pyruvic transaminase (SGPT), or total bilirubin >2.0×upper limit of normal (ULN) at or during Screening. […]
# [2] = system: subjects receiving hemodialysis, previously maintained on epoetin alfa; test: Open-label Phase 2 trial in subjects receiving hemodialysis previously maintained on epoetin alfa
# Method: The primary endpoint was mean hemoglobin (Hb) change from pre-baseline average to midtrial (Weeks 7-8) and end-of trial (Weeks 15-16) and was analyzed using available data (no imputation).
structure (smiles),measurement,setting,value
"O=C(O)CNC(=O)c1ncc(-c2cccc(Cl)c2)cc1O [Compound 1, Vadadustat]","Ferritin, mean",[1]; Baseline,469.72 ng/mL
same,"Hepcidin, mean",[1]; Baseline,122.43 ng/mL
same,"TSAT, mean",[1]; Baseline,31.32%
same,"Ferritin, mean",[1]; Weeks 24-36,495.73 ng/mL
same,"Hepcidin, mean",[1]; Weeks 24-36,96.05 ng/mL
same,"TSAT, mean",[1]; Weeks 24-36,31.65%
same,"Ferritin, mean",[1]; Weeks 40-52,555.47 ng/mL
same,"Hepcidin, mean",[1]; Weeks 40-52,95.73 ng/mL
same,"TSAT, mean",[1]; Weeks 40-52,33.11%
same,proportion of patients requiring RBC transfusions,[1]; weeks 24-36,1.3%
same,proportion of patients with an average hemoglobin value within the geography-specific target range,[1]; weeks 24-36,43.6%
same,mean (SEM) change from baseline in hemoglobin,[1]; weeks 24 to 36,1.26 (0.11) g/dL
same,mean difference between groups (vadadustat vs darbepoetin alfa) in change from baseline in hemoglobin,[1]; weeks 24 to 36,−0.31 (0.11) g/dL
same,proportion of patients requiring RBC transfusions,[1]; weeks 40-52,2.4%
same,proportion of patients with an average hemoglobin value within the geography-specific target range,[1]; weeks 40-52,39.8%
same,mean (SEM) change from baseline in hemoglobin,[1]; weeks 40 to 52,1.42 (0.132) g/dL
same,mean difference between groups (vadadustat vs darbepoetin alfa) in change from baseline in hemoglobin,[1]; weeks 40 to 52,−0.07 (0.13) g/dL
same,subjects with an Hb excursion>13 g/dL,[2]; all cohorts,one
same,mean change in Hb from pre-baseline average,"[2]; all dose cohorts (300 mg QD, 450 mg QD, 450 mg TIW), Weeks 7-8 and 15-16",no statistically significant mean change
same,serious AEs attributed to study drug,"[2]; human, in vivo",No serious AEs
same,diarrhea,[2]; overall,10.6%
same,nausea,[2]; overall,11.7%
same,subjects who experienced an adverse event (AE),[2]; overall,83%
same,vomiting,[2]; overall,9.6%
